{
  "source": "patent US12133486B2",
  "about": "“Methods of propagation of arbuscular mycorrhizal fungi (AMF) and uses thereof” (Terra Microbes, LLC, priority 2021, dated 2024)",
  "key": {"[1]": {"test_system": "AM fungi (mixed INVAM inoculum)", "assay": "Pot study: AM fungal spore production in steamed ML soil/sand with INVAM inoculum, planted or unplanted", "format": "in vivo", "details": "for AM Fungal Spores per 100 g soil: 80 ppm treatment P, end of study at 66 days, start 408 spores per 100 g; for increase in spore population from the start of the study: planted with yellow sweet clover; for increase in spore population from the start of the study / increase in spore population at 66 days over the levels at time 0: 66 days vs 408 spores per 100 g at time 0", "source_text": "(§1) This Example is an un-replicated study to examine whether PO3^−3 (phosphite) impacts spore production and infection rate of AM fungi. The fungi were a mixed inoculum source from the University of West Virginia (UWV). UWV holds and maintains the International Culture Collection of (Vesicular) Arbuscular Mycorrhizal Fungi (INVAM). The plant used was yellow blossom sweet clover (Melilotus officinalis). All pots were inoculated, but only half were planted. Each Experimental unit was a 20 cm pot. Substrate for the units were a soil, sand, and inoculum mixture.\nA known AM fungal inoculum was obtained from The International Culture Collection of (Vesicular) Arbuscular Mycorrhizae (invam.wvu.edu, Director Matt Kasson) maintained at the University of West Virginia in Morgantown, WV, US. A mixed culture of four AM fungal species was ordered. The mixture contained 250 ml of soil inoculum of each species. The total weight the entire mixed sample was 1345 grams and thus a bulk density of the sample of 1.345 g/ml. The material received contained the following species: Claroideoglomus etunicatum., Accession number AZ 201C (initially described by Becker W. N. and Gerdemann J. W., Mycotaxon, 6:29, 1977, as Glomus etunicatum.), spores were orange to red-brown, globose, subglobose; 60-160 μm diameter; mean 129 μm (n=120); Rhizophagus clarus, Accession number AZ 151D (initially described by Schenck, N. Mycologia, 71:182, 1979, as Glomus clarum.), spores are from white to yellow brown with many pale yellow to pale yellow brown, 100 to 260 μm diameter, mean 182 μm (n=120); Rhizophagus intraradices, Accession number AZ 123 (initially described by Schenck, N. Mycologia, 74:78, 1982, as Glomus intraradices), spores were white, pale cream, to yellow, brown, sometimes with a green hint, globose, subglobose, irregular. 40 to 140 μm diameter, mean 93.3 (n=170); and Septoglomus deserticola, Accession number CA 113 (initially described by Trappe J. Bluss and Menge J., 1984, Mycotaxon, 20:123, 1984, as Glomus deserticola), spores are orange-brown to dark red brown, most are reddish brown, globose to subglobose, sometimes irregular, 60 to 140 μm diameter.\n(§2) The present example was designed as a pot experiment where each pot was a treatment, the treatments being untreated controls, units treated with phosphate, and units treated with phosphite. All pots were a mixture of steamed ML soil, sand, and inoculum. Control units (pots) received no other treatment. Phosphate pots were treated with K2HPO4. Phosphite pots were treated with an equivalent molarity (concentration) of P as K2HPO3.\n(§3) Half of the pots (a control, phosphate, and phosphite treatments) were planted with yellow sweet clover seed. The other half of the pots (also a control, phosphate, and phosphite treatment) were not planted with any plants.\nPhosphate and phosphite were added to the soil materials such that the phosphorus in each would constitute 80 mg per kg of soil (Table 6). This is more than was added to the field experimental plots described in Example 3. However, the results of that experiment (Example 4) did show a response of the AM fungi to phosphite. In Example 4, phosphorous either as phosphate or phosphite, was added at 61.53 ppm. In Example 4, there was no apparent inhibition of infection or spore production by addition of phosphorus. The level of P was raised to 80 mg per kg in this example to accentuate the impact of added P on the AM fungi. Each pot described in Table 6 contained 3.022.5 g of soil material (soil plus sand and inoculum).\nThe various treatment substrates, i.e., soil, sand, and inoculum, were mixed in batches. The control batch was established and mixed for the control treatments. Likewise, the phosphate and phosphite batches were mixed, respectively, for all phosphate and phosphite treatments. The treatments salts (K2HPO4 and K2HPO3) were added as 400 ml aqueous solution (chemical in distilled water to 400 ml). […]"}, "[2]": {"test_system": "AM fungi infection of yellow sweet clover (Melilotus officinalis) roots", "assay": "Pot study: AM infection level of yellow sweet clover roots", "format": "in vivo", "details": "YBSC plants; 80 ppm treatment P; 66 days; infected 1.1 mm root segments per 80 examined", "source_text": "as §1, §2, §3\nPhosphate and phosphite were added to the soil materials such that the phosphorus in each would constitute 80 mg per kg of soil (Table 6). […]"}, "[3]": {"details": "YBSC (yellow sweet clover) plants"}},
  "data": [
    {"smiles": "OP(O)O", "note": "[PO3, dipotassium phosphite]", "values": [
      {"measurement": "AM Fungal Spores per 100 g soil", "setting": "[1]; [3]", "value": "4,598 per 100 g soil"},
      {"measurement": "AM Fungal Spores per 100 g soil", "setting": "[1]; no plants", "value": "7,301 per 100 g soil"},
      {"measurement": "increase in spore population from the start of the study", "setting": "[1]", "value": "1,127%"},
      {"measurement": "mature brownish reddish spores", "setting": "[1]; planted, 66 days", "value": "3,480 per 100 g soil"},
      {"measurement": "small, immature spores", "setting": "[1]; planted, 66 days", "value": 217, "unit": "per 100 g soil"},
      {"measurement": "light colored to white spores", "setting": "[1]; unplanted, 66 days", "value": "1,429 spores per 100 g soil"},
      {"measurement": "mature brownish reddish spores", "setting": "[1]; unplanted, 66 days", "value": "4,287 per 100 g soil"},
      {"measurement": "small, immature spores", "setting": "[1]; unplanted, 66 days", "value": "1,585 per 100 g soil"},
      {"measurement": "increase in spore population at 66 days over the levels at time 0", "setting": "[1]; unplanted", "value": "1,789%"},
      {"measurement": "AM Infection level, %", "setting": "[2]", "value": 35, "unit": "%"}
    ]},
    {"smiles": "O=P([O-])([O-])O.[K+].[K+]", "note": "[PO4, dipotassium phosphate]", "values": [
      {"measurement": "AM Fungal Spores per 100 g soil", "setting": "[1]; [3]", "value": "7,146 per 100 g soil"},
      {"measurement": "AM Fungal Spores per 100 g soil", "setting": "[1]; no plants", "value": "5,220 per 100 g soil"},
      {"measurement": "increase in spore population from the start of the study", "setting": "[1]", "value": "1,751%"},
      {"measurement": "mature brownish reddish spores", "setting": "[1]; planted, 66 days", "value": "2,827 per 100 g soil"},
      {"measurement": "small, immature spores", "setting": "[1]; planted, 66 days", "value": "3,604 per 100 g soil"},
      {"measurement": "mature brownish reddish spores", "setting": "[1]; unplanted, 66 days", "value": "2,237 per 100 g soil"},
      {"measurement": "small, immature spores", "setting": "[1]; unplanted, 66 days", "value": "2,548 per 100 g soil"},
      {"measurement": "increase in spore population at 66 days over the levels at time 0", "setting": "[1]; unplanted", "value": "1,279%"},
      {"measurement": "AM Infection level, %", "setting": "[2]", "value": 47.5, "unit": "%"}
    ]}
  ]
}
